Measurements from PMC12501029, “Discovery of a CNS active GSK3 degrader using orthogonally reactive linker screening” (Nature Communications, 2025).

Biological target: T1, GSK3β-HiBiT (GSK3β-HiBiT KI HEK293 cells) (Homo sapiens, UniProt P49841)
T1 construct: we generated endogenously tagged GSK3β-HiBiT knock-in (KI) HEK293 cells; endogenous in cells; host or cells: GSK3β-HiBiT knock-in HEK293 cells (CRISPR/Cas9, single-cell clone)
Test: Serum shift assay (10% FBS or 10% mouse serum)
Type: cell-based
Experimental: Test compounds were serially diluted into white bottom opaque tissue culture grade 384-well assay plates (Perkin Elmer) using Echo500 (Labcyte) and GSK3β-HiBiT KI HEK293 cells were seeded at a density of 5 × 10^3 cells per well either in 50 µL of DMEM supplemented with regular 10% FBS (Gibco) or instead 10% mouse serum (Balb/C) and plates were incubated for compound treatment in incubators at 37 °C. After 24 h of compound treatment, HiBiT lytic reagents (Promega) prepared according to manufacturers’ instructions were added into plates and luminescence signal was measured on a PheraStar plate reader (BMG) and data analysed using GraphPad Prism (v10.1.2) as previously described above.

T1 sequence (P49841 whole entry): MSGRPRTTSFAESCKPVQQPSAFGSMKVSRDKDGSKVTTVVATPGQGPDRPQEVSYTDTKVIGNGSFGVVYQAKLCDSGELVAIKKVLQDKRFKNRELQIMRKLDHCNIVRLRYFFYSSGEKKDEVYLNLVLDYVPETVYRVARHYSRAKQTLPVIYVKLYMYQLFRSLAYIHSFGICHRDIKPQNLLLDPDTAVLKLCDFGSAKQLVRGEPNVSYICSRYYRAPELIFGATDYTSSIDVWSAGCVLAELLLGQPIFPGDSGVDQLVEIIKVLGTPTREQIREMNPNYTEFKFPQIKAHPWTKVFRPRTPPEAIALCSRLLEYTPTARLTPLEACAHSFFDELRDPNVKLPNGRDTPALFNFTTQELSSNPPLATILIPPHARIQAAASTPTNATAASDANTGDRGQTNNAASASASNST

Cn1nc(N2CCC(=O)NC2=O)c2ccc(CN3CCN(Cc4ccc(-c5cn(-c6ccc(-c7cn8nccc(C(=O)Nc9cnccc9N9CCOCC9)c8n7)cc6)nn5)nc4)CC3)cc21 [compound 24]
DC50 (10% foetal bovine serum (FBS), 24 h): 1.3 nM
DC50 (10% mouse serum (MS), 24 h): 10.4 nM
Dmax (HEK293, 10% foetal bovine serum (FBS), 24 h): 89%
predicted shift in whole blood (extrapolated from 10% mouse serum shift): ~ 80 ×
free fraction in mouse plasma from serum shift (extrapolated from serum shift assay): ~ 1.2%
